Patent US20260138961A1, “MODULATORS OF MITOCHONDRIAL DNA REPLICATION” (Pretzel Therapeutics, Inc., priority 2022, published 2026)

target: T1, POLγA:G848S (Homo sapiens, UniProt P54098, G848S); assay: DNA polymerization assay, POLγA:G848S mutant; assay type: biochemical; details: stimulation of polymerase activity, primed M13mp18 ssDNA, 37° C. 2 hours; read-out: G848S AC50
T1 sequence (P54098 1-1239 G848S): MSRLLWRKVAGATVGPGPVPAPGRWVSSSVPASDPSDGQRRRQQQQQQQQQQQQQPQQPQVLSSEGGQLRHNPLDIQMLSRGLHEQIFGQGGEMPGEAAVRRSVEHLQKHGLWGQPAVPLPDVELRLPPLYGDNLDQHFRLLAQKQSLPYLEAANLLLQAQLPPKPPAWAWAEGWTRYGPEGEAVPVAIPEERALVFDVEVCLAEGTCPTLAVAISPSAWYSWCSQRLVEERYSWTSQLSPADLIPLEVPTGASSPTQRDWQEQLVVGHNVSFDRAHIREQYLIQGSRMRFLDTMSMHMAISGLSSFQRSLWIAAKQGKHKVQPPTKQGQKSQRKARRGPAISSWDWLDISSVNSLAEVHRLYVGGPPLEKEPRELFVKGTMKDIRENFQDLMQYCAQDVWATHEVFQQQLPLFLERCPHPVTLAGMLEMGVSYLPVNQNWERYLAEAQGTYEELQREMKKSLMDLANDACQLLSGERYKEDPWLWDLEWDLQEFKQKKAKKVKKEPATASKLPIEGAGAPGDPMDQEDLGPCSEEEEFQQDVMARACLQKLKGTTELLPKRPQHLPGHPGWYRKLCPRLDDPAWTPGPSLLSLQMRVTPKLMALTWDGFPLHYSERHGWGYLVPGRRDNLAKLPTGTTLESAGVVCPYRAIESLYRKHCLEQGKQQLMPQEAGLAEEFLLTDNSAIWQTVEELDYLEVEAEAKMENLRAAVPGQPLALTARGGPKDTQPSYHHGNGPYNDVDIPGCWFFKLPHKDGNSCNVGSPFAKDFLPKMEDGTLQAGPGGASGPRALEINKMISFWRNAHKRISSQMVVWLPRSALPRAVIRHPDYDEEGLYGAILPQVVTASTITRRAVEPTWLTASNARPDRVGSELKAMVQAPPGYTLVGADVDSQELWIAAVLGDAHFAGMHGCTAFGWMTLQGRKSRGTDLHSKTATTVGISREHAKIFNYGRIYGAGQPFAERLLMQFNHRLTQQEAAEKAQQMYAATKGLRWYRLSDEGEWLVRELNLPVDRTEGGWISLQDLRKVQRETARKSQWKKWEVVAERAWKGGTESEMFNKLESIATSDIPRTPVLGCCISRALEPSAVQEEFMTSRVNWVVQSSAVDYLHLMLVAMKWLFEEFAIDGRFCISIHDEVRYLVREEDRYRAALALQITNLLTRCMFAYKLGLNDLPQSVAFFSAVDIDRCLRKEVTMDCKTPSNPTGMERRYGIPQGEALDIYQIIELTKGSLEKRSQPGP
T1 sequence (Q9UHN1 1-485 partner): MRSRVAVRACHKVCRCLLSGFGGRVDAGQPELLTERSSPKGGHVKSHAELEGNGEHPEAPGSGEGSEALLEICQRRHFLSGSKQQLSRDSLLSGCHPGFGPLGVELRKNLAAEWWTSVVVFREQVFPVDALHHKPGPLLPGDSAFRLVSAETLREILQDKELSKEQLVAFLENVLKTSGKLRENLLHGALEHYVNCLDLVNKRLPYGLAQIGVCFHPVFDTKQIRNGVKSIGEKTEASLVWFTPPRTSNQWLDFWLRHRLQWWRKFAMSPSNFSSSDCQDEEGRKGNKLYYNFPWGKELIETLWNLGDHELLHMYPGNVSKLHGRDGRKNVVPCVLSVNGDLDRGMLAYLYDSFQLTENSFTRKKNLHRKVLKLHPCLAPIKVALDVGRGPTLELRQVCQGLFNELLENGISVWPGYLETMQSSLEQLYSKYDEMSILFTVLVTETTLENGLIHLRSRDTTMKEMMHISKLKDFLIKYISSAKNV
Description: DNA Polymerization Assay to Monitor Effects on Human Wildtype POLγ and Four Disease-Causing Mutant Variants of Human POLγ.
The ability of small molecules to stimulate the polymerase activity of POLγ was analyzed in a quantitative fluorescence SYBR Green I assay with fluorescence intensity (FI) readout.
In the presence of dNTPs, wild type human POLγ and mutant derivatives thereof were incubated with single-stranded, circular M13mp18 ssDNA hybridized to a short DNA oligonucleotide that functions as a primer for initiation of DNA synthesis. POLγ and mutant derivatives thereof will extend the primer and use the M13mp18 molecule as a template to synthesize long stretches of double-stranded DNA. SYBR Green I, which is a double-stranded DNA-binding dye, was used to quantify formation of double-stranded DNA in the reaction. When bound to double-stranded DNA, SYBR Green I fluorescence increases by up to 100-fold.
The assay was performed in the 384-well plate format. Upon addition of compounds, changes in double-stranded DNA synthesis activity can be monitored by following effects on fluorescent intensity.
The reactions also contained the accessory POLγB subunit, and the human mitochondrial single-stranded DNA binding protein (mtSSB).
The DNA template mixture used in the assay contained 0.5 nM primed M13 mp18 ssDNA, 400 nM mtSSB, 0.1 mM Tris-HCl (pH 8.0), 0.1 mM dNTP, 10 mM MgCl2, 0.1 mg/mL BSA, 1 mM TCEP solution, and 0.02% Triton X-100. The DNA template mixture for the wild type protein contained either 100 μM dNTP, 1 μM dNTP, or 0.1 μM dNTP, designated in Table 2 as 100 μM, 1 μM, and 0.1 μM, respectfully.
Microplates with compounds (0.1 μL in each well) to be tested in the assay were prepared from 10 mM compound stocks in 100% DMSO, and equal amounts of DMSO without any compound were added to positive and negative control wells.
The protein mixture was dispensed (5 μL into each well) into compound plates and incubated at 37° C. for 15 minutes. After incubation, 5 μL of the DNA template mixture was dispensed into each well. The plates were then incubated at 37° C. for 2 hours.
During incubation, a combined stop buffer and detection reagent solution was prepared. The buffer contained 25 mM EDTA (pH 8.0), 0.02% Triton X-100, and SYBR Green I [Invitrogen] diluted 10,000× (for fluorescent readout). EDTA will stop the enzymatic reaction by chelating magnesium ions.

| Compound | AC50 [µM] |
| --- | --- |
| Cc1cc(S(=O)(=O)Nc2cccc(C(=O)N(C)C(C)CO)c2)c(C)cc1Cl (single isomer, unassigned) [Example 14, 3-((4-chloro-2,5-dimethylphenyl)sulfonamido)-N-(1-hydroxypropan-2-yl)-N-methylbenzamide] | 16 |
| Cc1ccc(C)c(S(=O)(=O)Nc2cccc(C(=O)N3CCCCC3)c2)c1 [Example 3, 2,5-dimethyl-N-(3-(piperidine-1-carbonyl)phenyl)benzene sulfonamide] | 31 |
| Cc1ccc(C)c(S(=O)(=O)Nc2cccc(C(=O)NCC3CC3)c2)c1 [Example 4, N-(cyclopropylmethyl)-3-((2,5-dimethylphenyl)sulfonamido)benzamide] | 33 |
| Cc1ccc(C)c(S(=O)(=O)Nc2cccc(C(=O)N3CCCC[C@@H]3C)c2)c1 [Example 6, (S)-2,5-dimethyl-N-(3-(2-methylpiperidine-1-carbonyl)phenyl)benzenesulfonamide] | 30 |
| Cc1ccc(C)c(S(=O)(=O)Nc2cccc(C(=O)N3CCOCC3C#N)c2)c1 (stereo not drawn) [Example 7, N-(3-(3-cyanomorpholine-4-carbonyl)phenyl)-2,5-dimethylbenzenesulfonamide] | 13 |
| Cc1ccc(C)c(S(=O)(=O)Nc2cccc(C(=O)N[C@@H](C)C3CC3)c2)c1 [Example 8, (S)-N-(1-cyclopropylethyl)-3-((2,5-dimethylphenyl)sulfonamido)benzamide] | 23 |
| Cc1cc(S(=O)(=O)Nc2cccc(C(=O)N3CCCC[C@H]3C)c2)c(C)cc1Cl [Example 9, (R)-4-chloro-2,5-dimethyl-N-(3-(2-methylpiperidine-1-carbonyl)phenyl)benzenesulfonamide] | 6 |
| Cc1cc(S(=O)(=O)Nc2cccc(C(=O)N3CCC[C@H]3C)c2)c(C)cc1Cl [Example 10, (R)-4-chloro-2,5-dimethyl-N-(3-(2-methylpyrrolidine-1-carbonyl)phenyl)benzenesulfonamide] | 3 |
| Cc1cc(S(=O)(=O)Nc2cccc(C(=O)NCc3ccccc3)c2)c(C)cc1Cl [Example 11, N-benzyl-3-((4-chloro-2,5-dimethylphenyl)sulfonamido)benzamide] | 34 |
| Cc1cc(S(=O)(=O)Nc2cccc(C(=O)N(C)C)c2)c(C)cc1Cl [Example 12, 3-((4-chloro-2,5-dimethylphenyl)sulfonamido)-N,N-dimethylbenzamide] | 26 |
| Cc1cc(S(=O)(=O)Nc2cccc(-c3nccs3)c2)c(C)cc1Cl [Example 16, 4-chloro-2,5-dimethyl-N-(3-(thiazol-2-yl)phenyl)benzenesulfonamide] | 2 |
| Cc1cc(S(=O)(=O)Nc2cccc(-c3ncco3)c2)c(C)cc1Cl [Example 17, 4-chloro-2,5-dimethyl-N-(3-(oxazol-2-yl)phenyl)benzenesulfonamide] | 6 |
| Cc1cc(S(=O)(=O)Nc2cccc(-c3ccn(C)n3)c2)c(C)cc1Cl [Example 18, 4-chloro-2,5-dimethyl-N-(3-(1-methyl-1H-pyrazol-3-yl)phenyl)benzenesulfonamide] | 8 |
| Cc1cc(S(=O)(=O)Nc2cccc(-c3nccn3C)c2)c(C)cc1Cl [Example 19, 4-chloro-2,5-dimethyl-N-(3-(1-methyl-1H-imidazol-2-yl)phenyl)benzenesulfonamide] | 3 |
| Cc1cc(S(=O)(=O)Nc2cccc(-c3ncc(C(N)=O)s3)c2)c(C)cc1Cl [Example 92, 2-(3-((4-chloro-2,5-dimethylphenyl)sulfonamido)phenyl) thiazole-5-carboxamide] | 1 |
| CNC(=O)c1cnc(-c2cccc(NS(=O)(=O)c3cc(C)c(Cl)cc3C)c2)s1 [Example 93, 2-(3-((4-chloro-2,5-dimethylphenyl)sulfonamido)phenyl)-N-methylthiazole-5-carboxamide] | 9 |

The remaining lines, values ahead:

| AC50 [µM] | Compound |
| --- | --- |
| > 100 | Cc1cc(S(=O)(=O)Nc2cccc(-c3ncc(C(=O)N(C)C)s3)c2)c(C)cc1Cl [Example 94, 2-(3-((4-chloro-2,5-dimethylphenyl)sulfonamido)phenyl)-N,N-dimethylthiazole-5-carboxamide] |
| > 100 | Cc1cc(S(=O)(=O)N[C@H]2CCCN(C(=O)[C@H]3CCCN3C)C2)c(C)cc1Cl [Example 95, 4-chloro-2,5-dimethyl-N-((S)-1-(methyl-D-prolyl)piperidin-3-yl)benzenesulfonamide] |
| 4 | Cc1cc(S(=O)(=O)Nc2cccc(-c3ncc(C#N)s3)c2)c(C)cc1Cl [Example 96, 4-chloro-N-(3-(5-cyanothiazol-2-yl)phenyl)-2,5-dimethylbenzenesulfonamide] |
| > 100 | Cc1cc(S(=O)(=O)Nc2cccc(-c3ncc(-c4nnn[nH]4)s3)c2)c(C)cc1Cl [Example 97, N-(3-(5-(1H-tetrazol-5-yl)thiazol-2-yl)phenyl)-4-chloro-2,5-dimethylbenzenesulfonamide] |
| 9 | Cc1cnc(-c2ccc(C)c(NS(=O)(=O)c3cc(C)c(Cl)cc3C)c2)s1 [Example 98, 4-chloro-2,5-dimethyl-N-(2-methyl-5-(5-methylthiazol-2-yl)phenyl)benzenesulfonamide] |
| > 100 | Cc1nc2c(NS(=O)(=O)c3cc(C)c(Cl)cc3C)cccc2s1 [Example 99, 4-chloro-2,5-dimethyl-N-(2-methylbenzo[d]thiazol-4-yl)benzenesulfonamide] |
| > 100 | Cc1cc(S(=O)(=O)N[C@@H]2CCCN(C(=O)[C@H]3CCCN3C)C2)c(C)cc1Cl [Example 100, 4-chloro-2,5-dimethyl-N-((R)-1-(methyl-D-prolyl)piperidin-3-yl)benzenesulfonamide] |
| > 100 | Cc1cc(S(=O)(=O)N[C@H]2CCCN(C(=O)[C@@H]3CCCN3C)C2)c(C)cc1Cl [Example 101, 4-chloro-2,5-dimethyl-N-((S)-1-(methyl-L-prolyl)piperidin-3-yl)benzenesulfonamide] |
